Test results reported in patent US11698357B2, “Method for screening, isolating and purifying analytes” (CHANG GUNG UNIVERSITY, priority 2019, dated 2023).

Legend:
[1] = tested on: MES-SA/Dx5 cells; assay: MTT assay cell viability; format: cell-based; details: Homo sapiens, 5.0 μg ml^−1 doxorubicin, 48 hours
Protocol: (§1) Cell viability was also evaluated by assaying the intercellular dehydrogenase activity of cells using the commonly used MTT (thiazolyl blue tetrazolium bromide; Sigma Aldrich, MO USA) assay. Briefly, the cancer cells (i.e., MES-SA and Dx5 cells) were separately treated with doxorubicin as mentioned above. The drug-treated cancer cells were then assayed for viability (%) based on the manufacturer's instructions for the MTT assay kit.

[2] = tested on: MES-SA cells; assay: Percentage of live cells by fluorescent dye staining (Calcein-AM / EthD-1) and microscopy; format: cell-based, human
Protocol: (§2) In the present embodiment, cancer cell lines with (MES-SA/Dx5 cells; abbreviated as “Dx5” from the BCRC of Food Industry Research and Development Institute (FIRDI), Taiwan) and without (MES-SA cells from the BCRC of FIRDI) anti-cancer drug resistance were separately treated with various concentrations (0, 2.5, 5.0, 7.5, 10.0, 12.5, 15.0 μg ml^−1) of doxorubicin (doxorubicin hydrochloride; Enzo Life Sciences, CH) for 48 hours. The percentage of live cells was then evaluated by a combination of fluorescent dye staining and microscopic observation. Briefly, the drug-treated Dx5 cells were stained with the DiB cytoplasmic membrane labelling dye (Biotium, CA USA) and EthD-1 fluorescent dye (ethidium homodimer-1; Thermo Fisher Scientific, MA USA) to identify the living (blue staining), and dead (red staining) Dx5 cells, respectively. The drug-treated MES-SA cells were stained with Calcein-AM and EthD-1 fluorescent dyes (LIVE/DEAD1 Viability/Cytotoxicity Kit L-3224; Thermo Fisher Scientific, MA USA) to identify the living (green staining) and dead (red staining) cells, respectively. All the assays were performed according to the manufacturer's instructions. This was followed by microscopic observation using a fluorescence microscope (Zoom 160, OPTEM, USA). The overall viability of the cancer cells was then evaluated by determining the number of live cells relative to that of whole cells.

[3] = tested on: MES-SA/Dx5 cells; assay: Percentage of live cells by fluorescent dye staining (DiB / EthD-1) and microscopy; format: cell-based, human
Protocol: as §2

[4] = tested on: MES-SA cells; assay: MTT assay cell viability; format: cell-based, human; details: 48 hours
Protocol: as §1

[5] = 5.0 μg ml^−1 doxorubicin for 48 hours
[6] = 5.0 μg ml^−1 doxorubicin, 48 hours

COc1cccc2c1C(=O)c1c(O)c3c(c(O)c1C2=O)C[C@@](O)(C(=O)CO)C[C@@H]3O[C@H]1C[C@H](N)[C@H](O)[C@H](C)O1 [doxorubicin]
viability at 5 µg/mL [1]: 73.5% | dead cell percentage [2, 5]: 73.9% | percentage of live cells [2, 6]: 26.1% | dead cell percentage [3, 5]: 4.5% | percentage of live cells [3, 6]: 95.5% | viability at 5 µg/mL ([4]; Homo sapiens, 5.0 μg ml^−1 doxorubicin): 2.2% | cell viability (%) (MTT) ([4]; various concentrations of doxorubicin): ~0%
